Measured values from patent US5952189A (priority 1997, dated 1999).
Entries after “also recorded” stand apart in the source; their conditions may differ. Where two headings read alike, the source gives them in different places.

What was measured:
HL-60 cells = conditions: Bruno et al. 1992; cited from earlier work
U937 cells [1] = test: cells; type: cell-based, human; conditions: for Effect on DNA fragmentation induced by TNF or UV light: result in words
isolated U937 nuclei = test: DNA fragmentation assay using isolated U937 nuclei; type: cell-based, human; conditions: inhibitor 50 μM (FIG. 6B)
Procedure: U937 cells were labeled with ^3 H-thymidine by culturing overnight with isotope at 0.5 μCi/ml. The cells were pelleted, washed once, and the cytoplasmic membrane lysed by resuspending the cells in assay buffer (50 mM Tris, 250 mM sucrose 10 mM MgSO4, pH 7.5) plus 0.02% NP-40. Nuclei were then pelleted and resuspended in assay buffer at 1×10^6 /ml. The assay was set up in triplicate in flat bottom microtiter plates under sterile conditions. Nuclei (0.05 ml) were mixed with 0.05 ml of sample diluted in 50 mM Tris pH 7.5 or buffer alone to determine total counts. Plates were incubated for 5 h at 37° C. and then harvested by the addition of 0.1 ml of harvesting buffer (10 mM Tris, 10 mM EDTA, 0.3% Triton X-100, pH 7.5). Plates were harvested by filtration onto glass fiber paper and counted on a Packard Matrix 96 beta counter. Percent DNA fragmentation was calculated as follows: […]

3T3 = test: Inhibition of UV-induced DNA fragmentation in 3T3 cells; type: cell-based, murine; conditions: UV 0.5 J/cm^2, 8 h, no inhibitor 38 ± 1.9
Procedure: (§1) To determine if these findings were unique to U937 or if other cell lines also require protease activity to undergo apoptosis, the effects of several inhibitors on apoptosis induced by UV light in the human mammary carcinoma, BT-20, the murine fibroblast cell line, 3T3, and the human myeloid leukemia, HL-60 were tested. For the BT-20 and 3T3 cells, target cells were pretreated for one hour (with or without inhibitors as indicated in the table) and exposed to UV light at 0.5 J/cm^2 and then incubated for eight hours prior to assessing DNA fragmentation. HL-60 cells were pretreated for one hour (with or without inhibitors as indicated in the table) and exposed to UV at 0.2 J/cm^2 and then incubated for two hours prior to assessing DNA fragmentation.
(§2) DNA fragmentation assays were carried out according to the protocol of Wright S. C., et al. (1,992) J. Cell. Biochem. 48, 344-355. Target cells were labeled with ^3 H-thymidine and plated in triplicate in flat bottom microtiter plates. Cells were incubated for the indicated length of time for each experiment in the presence of TNF or various inhibitors. In some experiments, cells were treated with UV light at 245 nm using a UV Crosslinker (Fisher Scientific). Assays were harvested and counted on a Packard matrix 96 beta counter. Percent DNA fragmentation was calculated as for the nuclear assay described in Example 3. In assays to test the effects of various inhibitors, the pH of extra wells containing assay buffer, target cells, and each inhibitor was always checked at the beginning and end of each assay to assure that the pH remained at 7.5.

BT-20 = type: cell-based, human; conditions: for % DNA fragmentation: BT-20, UV 0.5 J/cm^2, 8 h, no inhibitor 44 ± 3.6
HL-60 = test: Inhibition of UV-induced DNA fragmentation in HL-60 cells; type: cell-based, human; conditions: UV 0.2 J/cm^2, 2 h, no inhibitor 49 ± 2.0
Procedure: as §1
as §2, with “In assays to test the effects of various inhibitors, the pH of extra wells containing assay buffer, target cells, and each inhibitor was always checked at the beginning and end of each assay to assure that the pH remained at 7.5.” left out

[2] = tested on: chymotrypsin-like enzymes; conditions: cited from earlier work
U937 cells [3] = test: Visualization of DNA fragmentation in U937 cells by agarose gel electrophoresis; type: cell-based, human
Procedure: In FIG. 2, U937 cells were pretreated with and without TPCK 10 μM for 30 min, exposed to UV light 0.15 J/cm^2, incubated another 2.5 h, then the DNA extracted and analyzed by agarose gel electrophoresis. Lane 1 of FIG. 2 contains molecular weight markers, lane 2 contains untreated U937, lane 3 contains U937 treated with TPCK, lane 4 contains U937 treated with UV light, lane 5 contains U937 treated with TPCK and UV light.
DNA fragmentation was carried out according to the procedure of Example 2. After the desired treatments, the cells were lysed and debris was removed by centrifugation at 13,000×g for 10 sec. DNA in the supernatant was ethanol precipitated after phenol extraction. Equivalent amounts of material from a fixed number of cells were loaded and electrophoresed on a 1.0% agarose slab gel. DNA was visualized by ethidium bromide staining.

[4] = Poe et al. 1991; cited from earlier work
apoptotic protease [5] = conditions: unspecified protease; cited from earlier work
[6] = tested on: TNF-induced hepatocyte apoptosis; test: TNF-induced hepatotoxicity in mice (serum transaminases); type: in vivo, Balb/c mice
Procedure: In this example the concept that a protease inhibitor such as DK120 may attenuate inappropriate apoptosis that causes tissue damage in systemic inflammatory response syndrome (SIRS) was tested. TNF-induced hepatocyte apoptosis in mice was performed as described by Leist et al. ((1995) J. Immunol. 154:1778-1786). Briefly, Balb/c mice were injected ip with […] murine TNF combined with […] Actinomycin D/mouse. Twelve h later, mice were anesthetized and bled from the heart to measure serum transaminase levels, which are standard clinically used indicators of liver damage. Mice that were treated with protease inhibitors were injected ip with these compounds 30 min. prior to TNF. Alanine aminotransferase (ALT) and aspartate aminotransferase (AST) were assayed using a commercially available kit (Sigma). […] However, treatment with DK120 caused a doss-dependent decrease in serum transaminase levels. […] However, a drug that nonspecifically blocks all apoptotic pathways that normally function to maintain homeostasis may not be clinically desirable. Subsequent studies were performed to determine if DK120 could also suppress hepatocyte apoptosis in response to a different stimulus.
^1 Mice (2 for each treatment) were injected ip +/- DK120 30 min prio
to TNF and Actinomycin D. Twelve h later serum transaminase levels were
(§3) To further explore the specificity of DK120 attenuation of TNF-induced hepatotoxicity, several compounds were tested that were found previously not to inhibit apoptotic protease proteolytic activity as measured against a synthetic substrate (data not shown). […] Therefore, the protection mediated by DK120 is not a property of any boron-containing molecule.
^1 Mice (3 for each treatment) were injected ip +/- the inhibitors 30
min prior to TNF and Actinomycin D. Twelve h later serum transaminase

apoptotic protease [7] = test: Inhibition of apoptotic protease proteolytic activity against a synthetic substrate; type: biochemical, human; conditions: data not shown
Procedure: Proteolytic activity was assayed using synthetic substrates selective for different known proteases. All assays were set up by adding 0.02 ml of sample (or known enzyme as a positive control) plus 0.18 ml of appropriate substrate dissolved in PBS PH 7.5 in triplicate in flat bottom microtiter plates, incubated for the indicated length of time at room temperature, and the OD at 405 nm measured using a plate reader.
Elastase-like activity was measured using N-methoxysuccinyl-ala-ala-pro-valp-nitroanilide (SEQ ID NO: 3) (MAAPV) at 0.25 mM as a substrate. For convenience and maximum sensitivity, these assays were routinely incubated 20 h to monitor protease purification. Under these conditions, the elastase dose response was linear up to a concentration of 6.0 μg/ml (OD of 1.0), see FIG. 3C. […] In order to quantitate the activity of the purified protease, identical assays were set up but kinetic readings of OD were taken every hour from 1-6 h. One unit of enzyme was calculated as the amount of enzyme that hydrolyzes 1.0 nmol substrate/h.
as §3

Cc1ccc(S(=O)(=O)N[C@@H](Cc2ccccc2)C(=O)CCl)cc1 [TPCK, N-1-tosylamide-2-phenylethylchloromethyl ketone]
Effect on chemotherapeutic drug-induced apoptosis (HL-60 cells): inhibits chemotherapeutic drug-induced apoptosis | IC50 (U937 cells [1]; Homo sapiens, U-937, read-out: IC50 (Active Concentration), TNF and UV-light induced apoptosis): 2000 nM | Concentration of maximum suppression of DNA fragmentation (U937 cells [1]; U937, TNF 1.0 ng/ml plus cycloheximide or UV 0.1 J/cm^2, 1 h pretreatment (FIG. 1)): 2.0 µM | Effect on DNA fragmentation induced by TNF or UV light (U937 cells [1]; U937 cells): suppressed DNA fragmentation; also recorded: dose-dependently inhibit DNA fragmentation | Inhibition of nuclear DNA fragmenting activity of protease from UV-treated cells (isolated U937 nuclei): inhibited | % DNA fragmentation (3T3; inhibitor 1 μM): 32 ± 1.1% | % DNA fragmentation (3T3; inhibitor 5 μM): 18 ± 0.8% | % DNA fragmentation (BT-20; inhibitor 1 μM): 19 ± 5.5% | % DNA fragmentation (BT-20; inhibitor 5 μM): 0 ± 0% | Effect on UV-induced DNA fragmentation (BT-20; summary of Table 2 (BT-20, 3T3, HL-60)): effectively blocked DNA fragmentation | % DNA fragmentation (HL-60; inhibitor 1 μM): 19 ± 2.0% | % DNA fragmentation (HL-60; inhibitor 5 μM): 1 ± 2.3% | Inhibition of chymotrypsin / chymotrypsin-like enzymes [2]: potent inhibitor of chymotrypsin-like enzymes | Effect on UV light-induced DNA fragmentation, agarose gel (U937 cells [3]; TPCK 10 μM 30 min, UV 0.15 J/cm^2, 2.5 h): completely abolished UV light-induced DNA fragmentation | DNA fragments on agarose gel, compound alone (U937 cells [3]; TPCK alone, no UV): no DNA fragments

human granzyme B: serine protease of cytotoxic lymphocyte granules
Activity on methoxysuccinyl-ala-ala-pro-val-thiobenzyl ester [4]: inactive

isopropylboronic acid [IBA]
Inactive Compounds, Highest Concentration Tested (highest nontoxic concentration, inactive) (U937 cells [1]; U937 cells, TNF and UV light, compound inactive at this concentration): 20 µM | Effect on DNA fragmentation induced by TNF or UV light (U937 cells [1]; U937 cells): does not inhibit DNA fragmentation | Protease inhibitory activity (apoptotic protease [5]): non-inhibitory; also recorded: devoid of protease inhibitory activity | Protection from TNF-induced hepatotoxicity ([6]; Table 10, 10 mg/kg): does not protect from TNF-induced hepatotoxicity | ALT ([6]; mouse, in vivo): 393 +/- 52 U/ml | Inhibition of apoptotic protease proteolytic activity (apoptotic protease [7]): no protease inhibitory activity
